Results on two molecules are retold here after patent publication US11026916B2, “Treatment for non-alcoholic fatty liver diseases” (DSM IP ASSETS B.V., priority 2014, dated 2021).

What all share (type): cell-based, human
The test system of one experiment is TNF-alpha. Kind of experiment: TNF-alpha secretion by LPS-stimulated leukocytes (mononuclear cells), multiplex cytokine kit. The conditions noted are these: for % reduction of TNF-alpha: pre-incubating cells prior to the stimulation with LPS, concentration not stated in the sentence (Table 1a). Here is the method: (§1) Leukocytes are obtained from healthy donors. Mononuclear cells (MNC) are purified by Ficoll-Isopaque gradient centrifugation. Cells (at 3-8×10^6 cells/mL) are cultured in phenol-red free RPMI 1640, supplemented with 0.25% FBS, 0.1 mM NEAA, 50 U/mL penicillin, 50 μg/mL streptomycin and 5×10^-5 M 2-mercaptoethanol. Cells are stimulated with LPS (100 ng/mL) and IFN-γ (20 U/mL) for 2-24 h. Multiparametric kits for determination of cytokines and chemokines are purchased from BIO-RAD Laboratories (Hercules, Calif.) and used in the LiquiChip Workstation IS 200 (Qiagen, Hilden, Germany). The data are evaluated with the LiquiChip Analyser software (Qiagen).
(§2) The algorithm developed by Chou and Tatalay is used to calculate synergistic effects (Chou, T-C. Et Tatalay, P. A simple Biol. Chem. 252, 6438-6442, 1977; Chou, T-C. Et Tatalay, P. Analysis of combined drug effects—A new look at a very old problem. Trends in Biological Sciences. November 1983, p 450-454, 1983). Interactions are quantified by the Combination Index (CI). Briefly, the % of inhibition of the concentration of each single substance alone or the mixture of both are determined. The affected fraction (fa) (values between 0 and 1) and unaffected fraction (fu) (1−fa), respectively, is calculated. For median-effect plots, log (fa/fu) is plotted against log (D), where D represents the concentration of each single compound alone or the mixture of both. Using CalcuSyn software (Biosoft, Ferguson, Mo.), which is based upon the method by Chou Et Tatalay, a CI is computed for every fraction affected: a CI<1 reflects synergistic inhibition of the respective inflammatory parameter; if CI=1 the substances have additive interactions; when CI>1 the interaction of substances reflects antagonism. It has also been observed that substances can have synergistic or antagonistic interactions at given concentrations or ratios, respectively (see e.g. Pappa et al. Quantitative combination effects between sulforaphane and 3,3′-[…] diindolylmethane on proliferation of human colon cancer cells in vitro. Carcinogenesis 28, 1471-77, 2007).
(§3) Cells are stimulated with LPS, an pathogen-derived component that induces inflammatory response, which is reflected in the expression of inflammatory genes and the secretion of cytokines, interleukins and chemokines (Table 1). LPS induces a massive increase of the secretion of inflammatory mediators such as TNF-alpha. Concomitantly, inflammatory mediators are secreted. These parameters are modulated by pre-incubating cells with α-tocopherol or ω-3 PUFA prior to the stimulation with LPS. For instance, the pro-inflammatory cytokine […] is reduced by 29% and 64%, respectively (Table 1a). […] Thus, the substances reduces the extent of the inflammatory stress in cells that respond to inflammatory stimuli.

For the next experiment, the system named is IL-1beta. Briefly: IL-1beta secretion by LPS-stimulated leukocytes (mononuclear cells), multiplex cytokine kit. The conditions noted are these: for IL-1beta reduction (in words): pre-incubating cells prior to the stimulation with LPS. The protocol: as §1, with “(Qiagen). […]” for “(Qiagen).”
as §3

The subject of a further experiment is CCL4/MIP-1beta. Kind of experiment: CCL4/MIP-1beta secretion by LPS-stimulated leukocytes (mononuclear cells), multiplex cytokine kit. The conditions noted are these: for CCL4/MIP-1 b reduction (in words): pre-incubating cells prior to the stimulation with LPS. The protocol:
as §1, §2, §3

Take `Cc1c(C)c2c(c(C)c1O)CC[C@@](C)(CCC[C@H](C)CCC[C@H](C)CCCC(C)C)O2` [AT, α-tocopherol]: the “% reduction of TNF-alpha” value with TNF-alpha came to 29%. Moreover, the “% inhibition (vs LPS) of TNF-alpha” value is recorded as −4% with TNF-alpha (single substance 10 μM + LPS), 29% with TNF-alpha (single substance 50 μM + LPS) and 27% in the experiment with TNF-alpha (single substance 200 μM + LPS). In addition, the “TNF-alpha pg/mL ± SD” value turned out to be 5505 ± 177 pg/mL in the experiment on TNF-alpha (single substance 10 μM + LPS), 3755 ± 21 pg/mL in the experiment with TNF-alpha (single substance 50 μM + LPS) and 3870 ± 14 pg/mL in the experiment with TNF-alpha (single substance 200 μM + LPS). Also, the “IL-1beta reduction (in words)” value in the experiment on IL-1beta is given as “significantly reduced”. Moreover, the “% inhibition (vs LPS) of IL-1beta” value is given as −7% with IL-1beta (single substance 10 μM + LPS), 9% with IL-1beta (single substance 50 μM + LPS) and 14% in the experiment with IL-1beta (single substance 200 μM + LPS). The figures for the “IL-1beta pg/mL ± SD” value in the experiment with IL-1beta (single substance 10 μM + LPS), in the experiment on IL-1beta (single substance 50 μM + LPS) and with IL-1beta (single substance 200 μM + LPS) were 6770 ± 438 pg/mL, 5735 ± 134 pg/mL and 5430 ± 113 pg/mL, respectively. Further, in the experiment with CCL4/MIP-1beta, the “CCL4/MIP-1 b reduction (in words)” value is listed as “significantly reduced”. In addition, the results for the “% inhibition (vs LPS) of CCL4” value with CCL4/MIP-1beta (single substance 10 μM + LPS), with CCL4/MIP-1beta (single substance 50 μM + LPS) and with CCL4/MIP-1beta (single substance 200 μM + LPS) were 7%, 15% and 11%, respectively. The “CCL4 pg/mL ± SD” value turned out to be 91400 ± 5657 pg/mL in the experiment with CCL4/MIP-1beta (single substance 10 μM + LPS), 83900 ± 3111 pg/mL with CCL4/MIP-1beta (single substance 50 μM + LPS) and 87950 ± 3165 pg/mL in the experiment with CCL4/MIP-1beta (single substance 200 μM + LPS).

Turning to `CC/C=C\C/C=C\C/C=C\C/C=C\C/C=C\C/C=C\CCC(=O)O` [DHA, (all-Z)-4,7,10,13,16,19-docosahexaenoic acid], the “% reduction of TNF-alpha” value in the experiment with TNF-alpha came to 64%. In addition, the “% inhibition (vs LPS) of TNF-alpha” value in the experiment with TNF-alpha (single substance 10 μM + LPS) amounted to 60%; with TNF-alpha (single substance 20 μM + LPS), 64%; with TNF-alpha (single substance 50 μM + LPS) it was 59%. Besides, the “TNF-alpha pg/mL ± SD” value was determined as 3190 ± 14 pg/mL in the experiment with TNF-alpha (single substance 10 μM + LPS), 3400 ± 523 pg/mL in the experiment on TNF-alpha (single substance 20 μM + LPS) and 3105 ± 163 pg/mL with TNF-alpha (single substance 50 μM + LPS). For the same molecule, in the experiment on IL-1beta, the “IL-1beta reduction (in words)” value is “significantly reduced”. The “% inhibition (vs LPS) of IL-1beta” value is reported as 14% in the experiment on IL-1beta (single substance 10 μM + LPS), 23% in the experiment on IL-1beta (single substance 20 μM + LPS) and 77% with IL-1beta (single substance 50 μM + LPS). Moreover, the “IL-1beta pg/mL ± SD” value with IL-1beta (single substance 10 μM + LPS) is given as 5405 ± 742 pg/mL; in the experiment on IL-1beta (single substance 20 μM + LPS), 4865 ± 1633 pg/mL; in the experiment with IL-1beta (single substance 50 μM + LPS), 1440 ± 71 pg/mL. Besides, the “CCL4/MIP-1 b reduction (in words)” value with CCL4/MIP-1beta is “significantly reduced”. Moreover, the “% inhibition (vs LPS) of CCL4” value in the experiment with CCL4/MIP-1beta (single substance 10 μM + LPS) was found to be 32%; with CCL4/MIP-1beta (single substance 20 μM + LPS), 62%; in the experiment with CCL4/MIP-1beta (single substance 50 μM + LPS) it was 62%. For the same molecule, the entries for the “CCL4 pg/mL ± SD” value in the experiment on CCL4/MIP-1beta (single substance 10 μM + LPS), with CCL4/MIP-1beta (single substance 20 μM + LPS) and with CCL4/MIP-1beta (single substance 50 μM + LPS) were 79995 ± 3465 pg/mL, 67000 ± 7523 pg/mL and 37600 ± 778 pg/mL, respectively.
